Measured values from PMC8302244 (CPT: Pharmacometrics & Systems Pharmacology, 2021).

How the values were obtained:
[1] = Semimechanistic population PK model
[2] = cited from earlier work
CYP3A4 mRNA = details: primary human hepatocytes, up to 300 μM; ref unpublished data on file; cited from earlier work
[3] = Predicted individual exposure metrics
[4] = test system: human cell lines derived from NC, SCLC, CRPC, TNBC, ER+BC and GIST; details: cited from earlier work
[5] = final model Run 32, power estimate of covariate effect
[6] = Besylate substudy—80 mg q.d., W1D1
[7] = Besylate substudy—80 mg q.d., W3D4

## COc1ccc2c(c1)C(c1ccc(Cl)cc1)=N[C@@H](CC(N)=O)c1nnc(C)n1-2 [GSK3529246]
[1]; final model Run 32
  GSK3529246 central volume of distribution mV1/F: 62.1 L
  GSK3529246 clearance mCL/F: 12.8 L/h
  GSK3529246 transit rate mka: 11.5 h⁻¹
[1]; [5]
  AST effect on mCL/F: −0.194
  Weight effect on V1/F and mV1/F: 0.717
[1]; final model Run 32, variance
  IIV on GSK3529246 transit rate ωmka2: 0.488
[2]
  free fraction in plasma: approximately 0.2
CYP3A4 mRNA
  donors with concentration‐dependent increase in CYP3A4 mRNA: one donor
[3]; [6]
  AUC0–24 Mean: 3110.0 ng/mL
  Cmax Mean: 316.0 ng/mL
  Cmin Mean: 34.7 ng/mL
[3]; [7]
  AUC0–24 Mean: 5890.0 ng/mL
  Cmax Mean: 469.0 ng/mL
  Cmin Mean: 89.6 ng/mL
[3]; Part 1—40 mg b.i.d., W1D1
  AUC0–24 Mean: 1860.0 ng/mL
  Cmax Mean: 222.0 ng/mL
  Cmin Mean: 94.5 ng/mL
[3]; Part 1—40 mg b.i.d., W3D4
  AUC0–24 Mean: 5810.0 ng/mL
  Cmax Mean: 365.0 ng/mL
  Cmin Mean: 128.0 ng/mL
[3]; Part 1—60 mg q.d., W1D1
  AUC0–24 Mean: 2640.0 ng/mL
  Cmax Mean: 296.0 ng/mL
  Cmin Mean: 21.3 ng/mL
[3]; Part 1—60 mg q.d., W3D4
  AUC0–24 Mean: 4240.0 ng/mL
  Cmax Mean: 379.0 ng/mL
  Cmin Mean: 57.7 ng/mL
[3]; Part 1—80 mg q.d., W1D1
  AUC0–24 Mean: 3230.0 ng/mL
  Cmax Mean: 355.0 ng/mL
  Cmin Mean: 65.8 ng/mL
[3]; Part 1—80 mg q.d., W3D4
  AUC0–24 Mean: 4730.0 ng/mL
  Cmax Mean: 448.0 ng/mL
  Cmin Mean: 66.1 ng/mL
[3]; Part 1—100 mg q.d., W1D1
  AUC0–24 Mean: 3910.0 ng/mL
  Cmax Mean: 383.0 ng/mL
  Cmin Mean: 46.8 ng/mL
[3]; Part 1—100 mg q.d., W3D4
  AUC0–24 Mean: 6970.0 ng/mL
  Cmax Mean: 567.0 ng/mL
  Cmin Mean: 120.0 ng/mL
[3]; Part 2—75 mg q.d., W1D1
  AUC0–24 Mean: 2720.0 ng/mL
  Cmax Mean: 325.0 ng/mL
  Cmin Mean: 57.5 ng/mL
[3]; Part 2—75 mg q.d., W3D4
  AUC0–24 Mean: 5010.0 ng/mL
  Cmax Mean: 431.0 ng/mL
  Cmin Mean: 82.7 ng/mL

## CCNC(=O)C[C@@H]1N=C(c2ccc(Cl)cc2)c2cc(OC)ccc2-n2c(C)nnc21 [Molibresib]
[4]
  proliferation of human cancer cell lines: inhibits the proliferation
